Results on 11 molecules are retold here after ChEMBL document CHEMBL1201862, “PubChem BioAssay data set” (2004).

Assay in all cases: NCI anticancer screen, dose series, 48 h
Experiment [1] has as its system MDA-N.
In experiment [2] the test system is HT-29.
Experiment [3] relates to A549.
The test system of experiment [4] is HOP-62.
The test system of experiment [5] is SK-MEL-28.
The subject of experiment [6] is SK-MEL-2.
Experiment [7] relates to SW-620.
For experiment [8], the system named is NCI/ADR-RES.
In experiment [9] the test system is IGROV-1.
Experiment [10] relates to U-251.
The subject of experiment [11] is COLO 205.
Experiment [12] concerns HCT-116.
For experiment [13], the system named is OVCAR-5.
The test system of experiment [14] is HL-60.
The subject of experiment [15] is T47D.
For experiment [16], the system named is KM12.
The subject of experiment [17] is LOX IMVI.
Experiment [18] concerns UACC-62.
In experiment [19] the test system is OVCAR-8.
The test system of experiment [20] is NCI-H522.

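96-well plates; 48 h exposure; 5 concentrations. Endpoints by linear interpolation between flanking doses. Not reached: highest tested concentration assigned. GI50 marks 50% less growth.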 Calls of active or inactive are those of the source. No stated cut-off is given here; in the data, active = GI50 up to about 1.1 µM and inactive = higher.

Regarding `O=C1/C(=C/Cc2ccco2)N=C(c2ccccc2)N1c1nc2c(Cl)cc(Cl)cc2s1`, the GI50 in experiment [1] is 20.9 µM (inactive); in experiment [2], 30.8 µM (inactive); in experiment [3], 26.4 µM (inactive); in experiment [4] it was 24.8 µM (inactive); in experiment [5], 57.1 µM (inactive); in experiment [6] it was 23.7 µM (inactive). The GI50 is 39 µM (inactive) in [7]; 24.3 µM (inactive) in experiment [8]; 29.9 µM (inactive) in experiment [9]; 27 µM (inactive) in [10]; 40.5 µM (inactive) in experiment [11]; 27.7 µM (inactive) in experiment [12]. In addition, the GI50 in [13] was 52.2 µM (inactive); in [14], 20.9 µM (inactive); in [15], 16.8 µM (inactive); in experiment [16] it was 27.7 µM (inactive); in [17], 25.4 µM (inactive); in [18], 27.5 µM (inactive). Moreover, in experiment [19], the GI50 was 36 µM (inactive).

Regarding `CC1(C)CC2(C)OC(=N)C1(C#N)C2(C#N)C#N` (stereo not given), the GI50 in experiment [1] was 7.08 µM (inactive); in experiment [2] it was 2.77 µM (inactive); in experiment [3] it was 23.2 µM (inactive); in [6], 17.4 µM (inactive); in [7], 3.1 µM (inactive); in experiment [8], 13 µM (inactive). Also, the GI50 is 15 µM (inactive) in experiment [9]; 13.6 µM (inactive) in experiment [10]; 2.56 µM (inactive) in experiment [11]; 7.46 µM (inactive) in experiment [12]; 2.44 µM (inactive) in experiment [20]; 14.3 µM (inactive) in [13]. Also, the GI50 in experiment [14] was 2.98 µM (inactive); in [15], 10.7 µM (inactive); in [16], 16 µM (inactive); in experiment [17], 1.68 µM (inactive); in experiment [18], 12.4 µM (inactive); in [19] it was 18.2 µM (inactive).

In the case of `O=C(Nc1ccc(Cl)cc1)c1cc(S(=O)(=O)N2CCNNC2=O)c(S)cc1Cl`, the GI50 in experiment [1], in experiment [3], in experiment [5], in [6], in experiment [7] and in experiment [8] was > 100 µM (inactive) in each case. For the same molecule, the GI50 in experiment [9] was > 100 µM (inactive); in experiment [10], > 100 µM (inactive); in experiment [11], > 100 µM (inactive); in experiment [12] it was > 100 µM (inactive); in experiment [20] it was 24.7 µM (inactive); in experiment [13], > 100 µM (inactive). Further, the GI50 was > 100 µM (inactive) in experiment [14]; 35.6 µM (inactive) in [15]; > 100 µM (inactive) in experiment [16]; > 100 µM (inactive) in [17]; > 100 µM (inactive) in experiment [18]; > 100 µM (inactive) in [19].

Take `O=c1[nH]nc(Cc2ccccc2)n1C1CC1`: the GI50 in experiment [1], in experiment [2], in experiment [3], in experiment [4], in [5] and in [7] was > 100 µM (inactive) each time. The GI50 in experiment [8], in [9], in experiment [10], in [11], in experiment [12] and in experiment [20] was > 100 µM (inactive) in each case. For the same molecule, the GI50 in experiment [13], in experiment [14], in [15], in experiment [16], in [17] and in [18] was > 100 µM (inactive) each time. Also, the GI50 in experiment [19] is > 100 µM (inactive).

With `COc1ccc(/C=C2\CCC(CNc3ccc(OC)cc3)C2=O)cc1` (stereo not given), the GI50 was 14.1 µM (inactive) in [1]; 14.3 µM (inactive) in [2]; 36.4 µM (inactive) in [3]; 36.4 µM (inactive) in experiment [4]; 18.9 µM (inactive) in experiment [5]; 3.5 µM (inactive) in experiment [7]. The GI50 is 39.4 µM (inactive) in experiment [8]; 13.9 µM (inactive) in [9]; 18.7 µM (inactive) in experiment [10]; 15.7 µM (inactive) in [11]; 11 µM (inactive) in experiment [12]; 5.58 µM (inactive) in experiment [20]. The GI50 in [13] was 18.5 µM (inactive); in experiment [14], 3.09 µM (inactive); in experiment [15] it was 18.8 µM (inactive); in experiment [16], 10.5 µM (inactive); in experiment [17] it was 12.9 µM (inactive); in experiment [18], 17.1 µM (inactive). Besides, in experiment [19], the GI50 is 17.7 µM (inactive).

Take `CCOC(=O)c1[nH]c2cccc3c2c1CC(Br)C3=O` (stereo not given): the GI50 in experiment [1] is 11.6 µM (inactive); in experiment [2] it was 20 µM (inactive); in experiment [3] it was 17.3 µM (inactive); in experiment [4], 19 µM (inactive); in experiment [5], 20 µM (inactive); in [7] it was 2.34 µM (inactive). The GI50 in experiment [8] was 15.3 µM (inactive); in experiment [9], 5.86 µM (inactive); in experiment [10], 14.9 µM (inactive); in experiment [11], 14 µM (inactive); in experiment [12], 2.48 µM (inactive); in [13] it was 19 µM (inactive). Further, the GI50 is 2.94 µM (inactive) in [14]; 15.9 µM (inactive) in [15]; 15.8 µM (inactive) in experiment [16]; 15.7 µM (inactive) in experiment [17]; 16.6 µM (inactive) in [19].

Take `CC(C)(C)OC(=O)N1CC(COS(C)(=O)=O)c2ccc(O)cc21` (stereo not given): the GI50 was 2.08 µM (inactive) in [1]; 3.21 µM (inactive) in [2]; 3.12 µM (inactive) in experiment [3]; 3.3 µM (inactive) in [4]; 2.14 µM (inactive) in experiment [5]; 1.51 µM (inactive) in [6]. Besides, the GI50 in [7] is 2.1 µM (inactive); in experiment [8], 1.74 µM (inactive); in [9], 2.84 µM (inactive); in experiment [10] it was 2.51 µM (inactive); in experiment [11] it was 1.58 µM (inactive); in experiment [12], 1.95 µM (inactive). Further, the GI50 was 1.05 µM (active) in experiment [20]; 2.12 µM (inactive) in experiment [13]; 1.24 µM (inactive) in experiment [14]; 3.05 µM (inactive) in experiment [15]; 2.46 µM (inactive) in experiment [16]; 1.73 µM (inactive) in experiment [18]. The GI50 in [19] is 1.85 µM (inactive).

`Nc1ccc(OCCCc2c(-c3ccccc3)[nH]c(N)nc2=O)cc1`: the GI50 is 31.9 µM (inactive) in experiment [1]; < 0.01 µM (active) in experiment [2]; 20.6 µM (inactive) in [4]; 27.5 µM (inactive) in experiment [5]; > 100 µM (inactive) in experiment [7]; > 100 µM (inactive) in [8]. Further, the GI50 is 31.3 µM (inactive) in experiment [9]; 69.5 µM (inactive) in [10]; 26 µM (inactive) in [11]; 29 µM (inactive) in experiment [12]; 18.4 µM (inactive) in experiment [20]; > 100 µM (inactive) in [13]. In addition, the GI50 is 86.9 µM (inactive) in experiment [14]; 12.2 µM (inactive) in experiment [15]; 67.8 µM (inactive) in experiment [16]; 31 µM (inactive) in experiment [17]; 16.1 µM (inactive) in [18]; 44.4 µM (inactive) in experiment [19].

As to `Cn1c(=O)oc2cc(C(=O)CSC(=S)N3CCCCCC3)ccc21`, the GI50 in [1] is > 100 µM (inactive); in [2], 18.7 µM (inactive); in experiment [3], > 100 µM (inactive); in experiment [4], 61.1 µM (inactive); in experiment [5], > 100 µM (inactive); in [6] it was > 100 µM (inactive). The GI50 is > 100 µM (inactive) in experiment [7]; 54.2 µM (inactive) in [8]; > 100 µM (inactive) in experiment [9]; 72.8 µM (inactive) in [10]; > 100 µM (inactive) in [11]; 73.6 µM (inactive) in experiment [12]. Besides, the GI50 in experiment [20] is > 100 µM (inactive); in [13], > 100 µM (inactive); in experiment [14], 51.8 µM (inactive); in [15] it was 86.7 µM (inactive); in experiment [16], 49.8 µM (inactive); in experiment [18], > 100 µM (inactive). In experiment [19], the GI50 is > 100 µM (inactive).

Take `CO/C=C(/C(=O)OC)c1ccccc1[C@H]1C[C@@H]1c1ccccc1`: the GI50 in [1] was 18.7 µM (inactive); in [2], 18.6 µM (inactive); in experiment [3], 21.1 µM (inactive); in experiment [4], 35.2 µM (inactive); in [5], 25.8 µM (inactive); in experiment [6], 17.2 µM (inactive). Further, the GI50 in experiment [8] was 24 µM (inactive); in experiment [9] it was 19.9 µM (inactive); in experiment [10], 23.1 µM (inactive); in experiment [11], 14 µM (inactive); in [12] it was 17.4 µM (inactive); in experiment [20], 12.9 µM (inactive). For the same molecule, the GI50 in experiment [13] is 73.8 µM (inactive); in experiment [14], 21.9 µM (inactive); in experiment [15], 18.6 µM (inactive); in experiment [16] it was 20.1 µM (inactive); in [18], 14.9 µM (inactive); in experiment [19], 28.7 µM (inactive).

For the molecule `COc1ccc(-c2ccc(C(=O)C=P(c3ccccc3)(c3ccccc3)c3ccccc3)cc2)cc1`, the GI50 in experiment [1] was 13.2 µM (inactive); in [2], 6.05 µM (inactive); in [3] it was 6.95 µM (inactive); in experiment [4], 17.9 µM (inactive); in experiment [5], 14.8 µM (inactive); in experiment [7] it was 14.6 µM (inactive). For the same molecule, the GI50 is 13 µM (inactive) in experiment [8]; 13 µM (inactive) in experiment [10]; 3.94 µM (inactive) in [11]; 12.4 µM (inactive) in experiment [12]; 16.6 µM (inactive) in experiment [13]; 3.94 µM (inactive) in experiment [14]. Also, the GI50 is 5.68 µM (inactive) in experiment [15], 13.7 µM (inactive) in experiment [16], 13.2 µM (inactive) in [17] and 15.2 µM (inactive) in experiment [18].
